The source of these data is patent US9340590B2 (priority 2011, dated 2016).

Common to all, as to assay: cell-based
The target in experiment [1] is hNav1.7 (Homo sapiens, UniProt Q15858). The experiment is classed as cell-based. To be noted: IonWorks Quattro, use-dependent protocol, hNav1.7; read-out: IWQ Use Nav1.7. A general note: The patch-clamp technique gives a direct electrical read-out from membranes.
Experiment [2] has as its target hNav1.5 (Homo sapiens, UniProt Q14524).
Experiment [3] addresses hNav1.3 (Homo sapiens, UniProt Q9NY46). Conditions: IonWorks Quattro, use-dependent protocol, hNav1.3; read-out: IWQ Use Nav1.3.
[4] abbreviates: IonWorks Quattro, use-dependent protocol, hNav1.5, read-out: IWQ Use Nav1.5.

Like-named read-outs stand apart in the source and are kept apart here. Positions of bridges follow the written chain, without caps; N, C: chain ends. Residues, ends and D or L forms follow the SMILES beside them.

Chain of hNav1.3 (Q9NY46 whole entry, looked up): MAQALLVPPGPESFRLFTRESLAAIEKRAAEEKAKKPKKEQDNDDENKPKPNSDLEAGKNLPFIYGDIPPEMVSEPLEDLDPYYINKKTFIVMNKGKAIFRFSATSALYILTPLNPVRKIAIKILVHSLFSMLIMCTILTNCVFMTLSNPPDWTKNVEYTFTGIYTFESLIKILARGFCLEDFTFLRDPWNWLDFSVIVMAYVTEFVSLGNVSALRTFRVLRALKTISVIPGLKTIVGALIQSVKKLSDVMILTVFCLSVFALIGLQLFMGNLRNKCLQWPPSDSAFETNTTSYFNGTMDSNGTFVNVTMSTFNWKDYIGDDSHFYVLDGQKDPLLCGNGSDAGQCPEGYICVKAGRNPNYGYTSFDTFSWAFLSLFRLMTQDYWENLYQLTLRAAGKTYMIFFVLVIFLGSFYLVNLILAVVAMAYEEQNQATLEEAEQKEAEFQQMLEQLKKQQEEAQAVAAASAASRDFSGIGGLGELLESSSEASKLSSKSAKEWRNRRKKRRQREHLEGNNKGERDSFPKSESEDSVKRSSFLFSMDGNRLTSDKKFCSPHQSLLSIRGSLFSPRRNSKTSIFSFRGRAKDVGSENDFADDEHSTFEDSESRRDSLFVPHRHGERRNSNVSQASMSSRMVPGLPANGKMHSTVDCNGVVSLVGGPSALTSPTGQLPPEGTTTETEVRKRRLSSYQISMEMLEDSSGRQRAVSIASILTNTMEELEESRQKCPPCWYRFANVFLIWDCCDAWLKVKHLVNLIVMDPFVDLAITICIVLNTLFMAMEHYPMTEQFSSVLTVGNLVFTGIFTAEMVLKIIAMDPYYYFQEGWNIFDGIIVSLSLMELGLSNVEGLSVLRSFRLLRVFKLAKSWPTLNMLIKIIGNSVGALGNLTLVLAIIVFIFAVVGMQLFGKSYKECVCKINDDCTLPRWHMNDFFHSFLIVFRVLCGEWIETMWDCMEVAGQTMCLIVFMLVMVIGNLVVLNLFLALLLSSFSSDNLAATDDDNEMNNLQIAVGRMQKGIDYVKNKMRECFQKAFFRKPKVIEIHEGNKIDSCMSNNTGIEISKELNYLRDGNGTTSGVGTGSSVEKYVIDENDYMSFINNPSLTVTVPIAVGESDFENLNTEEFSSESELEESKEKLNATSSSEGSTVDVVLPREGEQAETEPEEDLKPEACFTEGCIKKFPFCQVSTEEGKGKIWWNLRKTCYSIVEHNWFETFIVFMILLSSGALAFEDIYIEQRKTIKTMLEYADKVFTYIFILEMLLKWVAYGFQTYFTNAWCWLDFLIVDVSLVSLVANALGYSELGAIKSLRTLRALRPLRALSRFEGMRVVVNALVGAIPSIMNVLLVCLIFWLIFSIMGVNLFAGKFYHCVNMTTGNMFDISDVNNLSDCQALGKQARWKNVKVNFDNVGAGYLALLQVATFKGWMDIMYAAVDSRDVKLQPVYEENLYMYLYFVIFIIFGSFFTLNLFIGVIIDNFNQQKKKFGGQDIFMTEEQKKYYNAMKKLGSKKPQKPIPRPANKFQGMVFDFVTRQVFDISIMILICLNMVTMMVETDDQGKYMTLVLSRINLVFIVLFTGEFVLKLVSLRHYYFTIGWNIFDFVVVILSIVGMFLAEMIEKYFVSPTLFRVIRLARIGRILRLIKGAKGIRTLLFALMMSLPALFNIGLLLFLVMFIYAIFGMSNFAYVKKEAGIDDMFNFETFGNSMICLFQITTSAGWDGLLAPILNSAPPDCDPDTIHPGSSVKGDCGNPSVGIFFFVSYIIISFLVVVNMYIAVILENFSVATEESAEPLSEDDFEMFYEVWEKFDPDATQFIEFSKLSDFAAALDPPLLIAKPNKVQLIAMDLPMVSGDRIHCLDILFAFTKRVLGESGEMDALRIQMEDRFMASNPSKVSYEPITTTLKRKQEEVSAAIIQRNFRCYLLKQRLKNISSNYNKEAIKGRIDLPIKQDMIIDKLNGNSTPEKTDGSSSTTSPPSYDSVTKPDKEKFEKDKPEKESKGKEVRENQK
Chain of hNav1.7 (Q15858 whole entry, looked up): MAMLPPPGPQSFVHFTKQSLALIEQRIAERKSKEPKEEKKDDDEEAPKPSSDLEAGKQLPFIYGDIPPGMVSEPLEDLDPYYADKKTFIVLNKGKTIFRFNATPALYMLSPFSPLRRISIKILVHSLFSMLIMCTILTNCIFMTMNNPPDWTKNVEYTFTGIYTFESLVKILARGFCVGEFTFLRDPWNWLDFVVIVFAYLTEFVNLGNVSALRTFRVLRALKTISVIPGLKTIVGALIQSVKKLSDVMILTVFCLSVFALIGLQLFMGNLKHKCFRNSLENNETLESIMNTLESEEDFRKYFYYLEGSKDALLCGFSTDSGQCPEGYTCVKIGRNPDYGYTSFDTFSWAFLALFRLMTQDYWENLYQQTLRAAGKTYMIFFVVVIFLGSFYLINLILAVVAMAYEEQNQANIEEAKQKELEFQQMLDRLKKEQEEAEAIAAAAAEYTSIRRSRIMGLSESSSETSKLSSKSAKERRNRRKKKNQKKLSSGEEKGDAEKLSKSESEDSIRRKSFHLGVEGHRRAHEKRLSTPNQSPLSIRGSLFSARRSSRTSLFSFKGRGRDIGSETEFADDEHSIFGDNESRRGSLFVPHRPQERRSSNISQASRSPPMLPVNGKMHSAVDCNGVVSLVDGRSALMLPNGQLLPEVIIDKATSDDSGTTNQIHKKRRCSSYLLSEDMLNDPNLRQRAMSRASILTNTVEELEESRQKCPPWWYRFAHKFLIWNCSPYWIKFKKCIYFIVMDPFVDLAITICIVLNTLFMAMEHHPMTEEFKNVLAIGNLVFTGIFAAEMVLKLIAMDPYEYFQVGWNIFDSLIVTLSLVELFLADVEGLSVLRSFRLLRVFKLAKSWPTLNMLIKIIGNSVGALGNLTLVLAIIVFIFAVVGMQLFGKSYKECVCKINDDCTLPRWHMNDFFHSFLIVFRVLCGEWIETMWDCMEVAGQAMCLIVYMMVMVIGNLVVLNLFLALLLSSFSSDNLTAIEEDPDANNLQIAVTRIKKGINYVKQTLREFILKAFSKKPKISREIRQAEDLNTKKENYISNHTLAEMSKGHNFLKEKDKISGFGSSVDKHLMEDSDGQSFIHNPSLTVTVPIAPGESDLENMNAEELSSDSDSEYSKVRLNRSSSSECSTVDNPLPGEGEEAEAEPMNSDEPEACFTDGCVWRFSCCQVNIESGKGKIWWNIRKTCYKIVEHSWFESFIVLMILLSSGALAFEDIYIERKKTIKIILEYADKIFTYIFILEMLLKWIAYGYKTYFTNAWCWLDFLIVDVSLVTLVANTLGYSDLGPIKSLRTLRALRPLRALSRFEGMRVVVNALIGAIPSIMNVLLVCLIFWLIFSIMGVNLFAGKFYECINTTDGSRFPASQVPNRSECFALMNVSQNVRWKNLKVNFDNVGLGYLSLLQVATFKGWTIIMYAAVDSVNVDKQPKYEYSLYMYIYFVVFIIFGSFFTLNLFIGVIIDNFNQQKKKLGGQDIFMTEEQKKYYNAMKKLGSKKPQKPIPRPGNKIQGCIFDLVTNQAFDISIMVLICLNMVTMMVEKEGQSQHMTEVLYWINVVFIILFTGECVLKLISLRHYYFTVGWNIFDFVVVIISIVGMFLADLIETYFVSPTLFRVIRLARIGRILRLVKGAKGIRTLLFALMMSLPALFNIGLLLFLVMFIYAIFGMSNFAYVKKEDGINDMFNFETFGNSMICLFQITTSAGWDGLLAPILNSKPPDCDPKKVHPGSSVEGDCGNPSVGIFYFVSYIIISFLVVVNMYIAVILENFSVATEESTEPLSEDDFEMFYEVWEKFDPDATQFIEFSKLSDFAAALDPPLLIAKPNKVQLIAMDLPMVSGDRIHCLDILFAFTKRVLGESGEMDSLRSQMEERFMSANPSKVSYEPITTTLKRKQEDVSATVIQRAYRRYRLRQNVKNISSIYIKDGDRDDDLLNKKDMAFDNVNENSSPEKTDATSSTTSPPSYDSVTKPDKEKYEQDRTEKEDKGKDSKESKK

Consider `CC[C@H](C)[C@@H]1NC(=O)[C@@H]2CSSC[C@@H]3NC(=O)[C@H](C(C)C)NC(=O)[C@H](CC(C)C)NC(=O)[C@H](CC(N)=O)NC(=O)[C@@H]4CCCN4C(=O)[C@H](CCCNC(=N)N)NC(=O)[C@H](CSSC[C@H](NC(=O)[C@@H](N)CC(=O)O)C(=O)N[C@@H](CC(C)C)C(=O)NCC(=O)N(C)[C@@H](Cc4ccccc4)C(=O)N[C@@H](CCSC)C(=O)N[C@@H](CCCNC(=N)N)C(=O)N[C@@H](CCCCN)C(=O)N2)NC(=O)[C@H](CSSC[C@@H](C(=O)N[C@@H](CCCCN)C(=O)N[C@@H](Cc2ccc(O)cc2)C(=O)N[C@H](C(=O)N[C@@H](Cc2ccccc2)C(N)=O)C(C)C)NC(=O)[C@H](Cc2c[nH]c4ccccc24)NC(=O)[C@H](CCCCN)NC(=O)[C@H](Cc2c[nH]cn2)NC(=O)[C@H]([C@@H](C)O)NC(=O)[C@H](CCCNC(=N)N)NC(=O)[C@H](CO)NC3=O)NC(=O)[C@H](CCCCN)NC(=O)[C@H](CC(=O)O)NC(=O)[C@H](CC(N)=O)NC(=O)[C@H](CC(=O)O)NC(=O)[C@@H]2CCCN2C1=O` [compound 657], for which the IC50 in experiment [1] is 360 nM; in experiment [2] (IWQ Use Nav1.5) it was greater than 5000 nM; in experiment [3], 280 nM.
Take `CC[C@H](C)[C@@H]1NC(=O)[C@@H]2CSSC[C@@H]3NC(=O)[C@H](C(C)C)NC(=O)[C@H](CC(C)C)NC(=O)[C@H](CC(N)=O)NC(=O)[C@@H]4CCCN4C(=O)[C@H](CCCNC(=N)N)NC(=O)[C@H](CSSC[C@H](NC(=O)[C@@H](N)CC(=O)O)C(=O)N[C@@H](CC(C)C)C(=O)NCC(=O)N[C@@H](C(C)(C)C)C(=O)N[C@@H](CC(C)C)C(=O)N[C@@H](CCCNC(=N)N)C(=O)N[C@@H](CCCCN)C(=O)N2)NC(=O)[C@H](CSSC[C@@H](C(=O)N[C@@H](CCCCN)C(=O)N[C@@H](Cc2ccc(O)cc2)C(=O)N[C@H](C(=O)N[C@@H](Cc2ccccc2)C(N)=O)C(C)C)NC(=O)[C@H](Cc2c[nH]c4ccccc24)NC(=O)[C@H](CCCCN)NC(=O)[C@H](Cc2c[nH]cn2)NC(=O)[C@H]([C@@H](C)O)NC(=O)[C@H](CCCNC(=N)N)NC(=O)[C@H](CO)NC3=O)NC(=O)[C@H](CCCCN)NC(=O)[C@H](CC(=O)O)NC(=O)[C@H](CC(N)=O)NC(=O)[C@H](CC(=O)O)NC(=O)[C@@H]2CCCN2C1=O` [compound 659]: the IC50 is 260 nM in experiment [1], greater than 5000 nM in experiment [2] (setting [4]) and 580 nM in experiment [3].
Turning to `CC[C@H](C)[C@@H]1NC(=O)[C@@H]2CSSC[C@@H]3NC(=O)[C@H](C(C)C)NC(=O)[C@H](CC(C)C)NC(=O)[C@H](CC(N)=O)NC(=O)[C@@H]4CCCN4C(=O)[C@H](CCCNC(=N)N)NC(=O)[C@H](CSSC[C@H](NC(=O)[C@@H](N)CC(=O)O)C(=O)N[C@@H](CC(C)C)C(=O)NCC(=O)N[C@@H](CCC(C)C)C(=O)N[C@@H](CC(C)C)C(=O)N[C@@H](CCCNC(=N)N)C(=O)N[C@@H](CCCCN)C(=O)N2)NC(=O)[C@H](CSSC[C@@H](C(=O)N[C@@H](CCCCN)C(=O)N[C@@H](Cc2ccc(O)cc2)C(=O)N[C@H](C(=O)N[C@@H](Cc2ccccc2)C(N)=O)C(C)C)NC(=O)[C@H](Cc2c[nH]c4ccccc24)NC(=O)[C@H](CCCCN)NC(=O)[C@H](Cc2c[nH]cn2)NC(=O)[C@H]([C@@H](C)O)NC(=O)[C@H](CCCNC(=N)N)NC(=O)[C@H](CO)NC3=O)NC(=O)[C@H](CCCCN)NC(=O)[C@H](CC(=O)O)NC(=O)[C@H](CC(N)=O)NC(=O)[C@H](CC(=O)O)NC(=O)[C@@H]2CCCN2C1=O` [compound 660], the results for the IC50 in experiment [1], in experiment [2] (setting [4]) and in experiment [3] were 31 nM, greater than 5000 nM and 59 nM, respectively.
On to `CC[C@H](C)[C@@H]1NC(=O)[C@@H]2CSSC[C@@H]3NC(=O)[C@H](C(C)C)NC(=O)[C@H](CC(C)C)NC(=O)[C@H](CC(N)=O)NC(=O)[C@@H]4CCCN4C(=O)[C@H](CCCNC(=N)N)NC(=O)[C@H](CSSC[C@H](NC(=O)[C@@H](N)CC(=O)O)C(=O)N[C@@H](CC(C)C)C(=O)NCC(=O)N[C@@H](CC(C)C)C(=O)N[C@@H](CC(C)C)C(=O)N[C@@H](CCCNC(=N)N)C(=O)N[C@@H](CCCCN)C(=O)N2)NC(=O)[C@H](CSSC[C@@H](C(=O)N[C@@H](CCCCN)C(=O)N[C@@H](Cc2ccc(O)cc2)C(=O)N[C@H](C(=O)N[C@@H](Cc2ccccc2)C(N)=O)C(C)C)NC(=O)[C@H](Cc2c[nH]c4ccccc24)NC(=O)[C@H](CCCCN)NC(=O)[C@H](Cc2c[nH]cn2)NC(=O)[C@H]([C@@H](C)O)NC(=O)[C@H](CCCNC(=N)N)NC(=O)[C@H](CO)NC3=O)NC(=O)[C@H](CCCCN)NC(=O)[C@H](CC(=O)O)NC(=O)[C@H](CC(N)=O)NC(=O)[C@H](CC(=O)O)NC(=O)[C@@H]2CCCN2C1=O` [compound 661] (H-DCLGLLRKCIPDNDKCCRPNLVCSRTHKWCKYVF-NH2; disulfide 2-17, 9-23, 16-30), for which the IC50 is 95 nM in experiment [1], greater than 5000 nM in experiment [2] (setting [4]) and 320 nM in experiment [3].
Take `CC[C@H](C)[C@@H]1NC(=O)[C@@H]2CSSC[C@@H]3NC(=O)[C@H](C(C)C)NC(=O)[C@H](CC(C)C)NC(=O)[C@H](CC(N)=O)NC(=O)[C@@H]4CCCN4C(=O)[C@H](CCCNC(=N)N)NC(=O)[C@H](CSSC[C@H](NC(=O)[C@@H](N)CC(=O)O)C(=O)N[C@@H](CC(C)C)C(=O)NCC(=O)N[C@@H](Cc4cccs4)C(=O)N[C@@H](CC(C)C)C(=O)N[C@@H](CCCNC(=N)N)C(=O)N[C@@H](CCCCN)C(=O)N2)NC(=O)[C@H](CSSC[C@@H](C(=O)N[C@@H](CCCCN)C(=O)N[C@@H](Cc2ccc(O)cc2)C(=O)N[C@H](C(=O)N[C@@H](Cc2ccccc2)C(N)=O)C(C)C)NC(=O)[C@H](Cc2c[nH]c4ccccc24)NC(=O)[C@H](CCCCN)NC(=O)[C@H](Cc2c[nH]cn2)NC(=O)[C@H]([C@@H](C)O)NC(=O)[C@H](CCCNC(=N)N)NC(=O)[C@H](CO)NC3=O)NC(=O)[C@H](CCCCN)NC(=O)[C@H](CC(=O)O)NC(=O)[C@H](CC(N)=O)NC(=O)[C@H](CC(=O)O)NC(=O)[C@@H]2CCCN2C1=O` [compound 662]: the IC50 was 22 nM in experiment [1], greater than 5000 nM in experiment [2] (setting [4]) and 68 nM in experiment [3].
As for `CC[C@H](C)[C@@H]1NC(=O)[C@@H]2CSSC[C@@H]3NC(=O)[C@H](C(C)C)NC(=O)[C@H](CC(C)C)NC(=O)[C@H](CC(N)=O)NC(=O)[C@@H]4CCCN4C(=O)[C@H](CCCNC(=N)N)NC(=O)[C@H](CSSC[C@H](NC(=O)[C@@H](N)CC(=O)O)C(=O)N[C@@H](CC(C)C)C(=O)NCC(=O)N[C@@H](C4CCCC4)C(=O)N[C@@H](CC(C)C)C(=O)N[C@@H](CCCNC(=N)N)C(=O)N[C@@H](CCCCN)C(=O)N2)NC(=O)[C@H](CSSC[C@@H](C(=O)N[C@@H](CCCCN)C(=O)N[C@@H](Cc2ccc(O)cc2)C(=O)N[C@H](C(=O)N[C@@H](Cc2ccccc2)C(N)=O)C(C)C)NC(=O)[C@H](Cc2c[nH]c4ccccc24)NC(=O)[C@H](CCCCN)NC(=O)[C@H](Cc2c[nH]cn2)NC(=O)[C@H]([C@@H](C)O)NC(=O)[C@H](CCCNC(=N)N)NC(=O)[C@H](CO)NC3=O)NC(=O)[C@H](CCCCN)NC(=O)[C@H](CC(=O)O)NC(=O)[C@H](CC(N)=O)NC(=O)[C@H](CC(=O)O)NC(=O)[C@@H]2CCCN2C1=O` [compound 663], the IC50 was 59 nM in experiment [1], greater than 5000 nM in experiment [2] (setting [4]) and 240 nM in experiment [3].
Regarding `CC[C@H](C)[C@@H]1NC(=O)[C@@H]2CSSC[C@@H]3NC(=O)[C@H](C(C)C)NC(=O)[C@H](CC(C)C)NC(=O)[C@H](CC(N)=O)NC(=O)[C@@H]4CCCN4C(=O)[C@H](CCCNC(=N)N)NC(=O)[C@H](CSSC[C@H](NC(=O)[C@@H](N)CC(=O)O)C(=O)N[C@@H](CC(C)C)C(=O)NCC(=O)N[C@@H](C4CCCCC4)C(=O)N[C@@H](CC(C)C)C(=O)N[C@@H](CCCNC(=N)N)C(=O)N[C@@H](CCCCN)C(=O)N2)NC(=O)[C@H](CSSC[C@@H](C(=O)N[C@@H](CCCCN)C(=O)N[C@@H](Cc2ccc(O)cc2)C(=O)N[C@H](C(=O)N[C@@H](Cc2ccccc2)C(N)=O)C(C)C)NC(=O)[C@H](Cc2c[nH]c4ccccc24)NC(=O)[C@H](CCCCN)NC(=O)[C@H](Cc2c[nH]cn2)NC(=O)[C@H]([C@@H](C)O)NC(=O)[C@H](CCCNC(=N)N)NC(=O)[C@H](CO)NC3=O)NC(=O)[C@H](CCCCN)NC(=O)[C@H](CC(=O)O)NC(=O)[C@H](CC(N)=O)NC(=O)[C@H](CC(=O)O)NC(=O)[C@@H]2CCCN2C1=O` [compound 664], the figures for the IC50 in experiment [1], in experiment [2] (setting [4]) and in experiment [3] were 19 nM, greater than 5000 nM and 110 nM, respectively.
In the case of `CC[C@H](C)[C@@H]1NC(=O)[C@@H]2CSSC[C@@H]3NC(=O)[C@H](C(C)C)NC(=O)[C@H](CC(C)C)NC(=O)[C@H](CC(N)=O)NC(=O)[C@@H]4CCCN4C(=O)[C@H](CCCNC(=N)N)NC(=O)[C@H](CSSC[C@H](NC(=O)[C@@H](N)CC(=O)O)C(=O)N[C@@H](CC(C)C)C(=O)NCC(=O)N[C@@H](Cc4ccc(C(=O)c5ccccc5)cc4)C(=O)N[C@@H](CC(C)C)C(=O)N[C@@H](CCCNC(=N)N)C(=O)N[C@@H](CCCCN)C(=O)N2)NC(=O)[C@H](CSSC[C@@H](C(=O)N[C@@H](CCCCN)C(=O)N[C@@H](Cc2ccc(O)cc2)C(=O)N[C@H](C(=O)N[C@@H](Cc2ccccc2)C(N)=O)C(C)C)NC(=O)[C@H](Cc2c[nH]c4ccccc24)NC(=O)[C@H](CCCCN)NC(=O)[C@H](Cc2c[nH]cn2)NC(=O)[C@H]([C@@H](C)O)NC(=O)[C@H](CCCNC(=N)N)NC(=O)[C@H](CO)NC3=O)NC(=O)[C@H](CCCCN)NC(=O)[C@H](CC(=O)O)NC(=O)[C@H](CC(N)=O)NC(=O)[C@H](CC(=O)O)NC(=O)[C@@H]2CCCN2C1=O` [compound 665], the values for the IC50 in experiment [1], in experiment [2] (setting [4]) and in experiment [3] were 230 nM, greater than 5000 nM and 30 nM, respectively.
